From patent US20150352100A1, “USE OF SELECTIVE DELTA-OPIOID RECEPTOR ANTAGONISTS AND SPECIFIC SENSORY RECEPTOR LIGANDS” (priority 2013, published 2015) come the findings set out here.

“Also recorded” adds a separate entry of the source.

The subject of assay [1] is primary human cultured fibroblasts. The experiment in a line: In-vitro wound scratch model, wound closure/migration. Conditions: for scratch wound closure after 24 h, remaining gap: FIG. 16b, all opioid antagonists 100 nM, compared to control without any antagonist; for wound closure/migration, gap closure after 24 h: FIG. 16a, compared to control cells in DMSO diluent. It counts as cell-based. As for the experimental part: All opioid antagonists were used in a concentration of 100 nM.
The stimulation of wound closure in fibroblasts by TGF-beta1 is not surprising. However, the stimulation by the DOR-Antagonist Naltrindole was not expected. In an additional experiment we tested the effect of various specific opioid receptor antagonists on the wound closure/migration of human primary fibroblasts using the in-vitro wound scratch assay.

The test system of assay [2] is TAS2R14. The experiment in a line: Calcium imaging (Fluo4-AM) of keratinocytes with TAS2R14 ligands. Type of assay: cell-based, human. As to conditions: for effect of blocker on calcium response to thujone: keratinocytes; for calcium response: in the presence of 100 μM suramin, 1 mM thujone, FFA in N/TERT cells, n=4; for effect of blocker on calcium responses to thujone and FFA: human skin cells, suramin 100 μM. As for the experimental part:
(§1) Maximal increases in fluorescence were generated in each recording by addition of the ionophore ionomycin at 1 μM, and calcium responses were calculated as percentages compared to maximal ionomycin signal.

Assay [3] has as its target T1, TAS2R14 (Homo sapiens, UniProt Q9NYV8).
T1 construct: This has allowed functional studies of TAS2R14 to be carried out in a native setting; endogenous in cells; host or cells: human primary keratinocytes and N/TERT immortalised human keratinocytes
T1 sequence (Q9NYV8 1-317): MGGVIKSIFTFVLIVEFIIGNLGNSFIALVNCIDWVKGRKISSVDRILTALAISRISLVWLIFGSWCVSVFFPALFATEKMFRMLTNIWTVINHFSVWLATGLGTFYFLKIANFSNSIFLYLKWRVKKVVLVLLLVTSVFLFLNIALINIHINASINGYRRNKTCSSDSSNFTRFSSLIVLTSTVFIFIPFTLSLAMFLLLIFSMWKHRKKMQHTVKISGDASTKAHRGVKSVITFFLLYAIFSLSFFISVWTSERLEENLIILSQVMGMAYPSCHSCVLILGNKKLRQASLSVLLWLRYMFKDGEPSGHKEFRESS
The assay is described as above. Type of assay: cell-based. Conditions: for intracellular free calcium (fluorescence of fluo4): bath-application of 1 mM, primary keratinocytes and N/TERT cells. As for the experimental part:
as §1

The subject of assay [4] is 6 mm punch wounds on the back of mice. The experiment in a line: In vivo wound healing, 6 mm punch wounds, topical cream. As to conditions: 1% w/w cream on wounds twice every day; for wound healing (mean healing rate, macroscopic and microscopic): 10 mice per group, vs placebo. As for the experimental part:
The effects of selective DOR antagonist are tested in animal models of wound healing, preferably in mice, to determine whether a selective DOR antagonist improves the quality, rate or extent of wound healing.
In the present example, male mice of 3-4 months old were grouped into 5 groups and 10 in each group. Before experiment, mice are shaved one day before. Pentothal was used for anesthesia before experiments. Seven days experiments are used. Four wounds are made by cutting 6 mm diameter and 3 cm apart. Day 1 wound #1 for 7 day wound, Day 3 wound #2 for 5 day wound, Day 5 wound #3 for 3 day wound, Day 7 wound #4 for 1 day wound, Day 8 mice are sacrifice. […] At the end of experiments on Day 8, the biopsies will be taken from the mice and fixed in 4% formaldehyde and embedded in paraffin block.

Another assay has as its system DOR protein expression. Description: Western blot analysis of DOR protein expression in cultured human skin cells. Type of assay: cell-based. An excerpt: B: Protein Expression of DOR by Western Blot Analysis: […]
The test system of a further assay is DOR-mRNA expression. The experiment in a line: Semiquantification of DOR mRNA by real time PCR in cultured human primary skin cells. It counts as cell-based. The source says: A: Semiquantification of DOR mRNA by Real Time PCR
It is important to mention, that human cultured melanocytes and keratinocytes express more MOR than DOR mRNA. However, fibroblasts express more DOR than MOR mRNA.
On the technique in general: In qPCR the cycle at which signal appears reflects the starting amount.

The test system of assay [5] is Erk phosphorylation (ERK1/2). The experiment in a line: pERK activation protocol (western blot, anti-phospho ERK1/2) in primary keratinocytes. It counts as cell-based, human. As for the experimental part:
Primary keratinocytes were grown to 70% and replaced with supplement free medium 16-24 hours before the experiments. The strongly stimulating supplement (25 mg/l bovine pituitary extract and 2.5 ug/l epidermal growth factor, EGF) in complete KFSM (Gibco) medium was used as positive control. Cells were exposed to SNC 80 for 15 min, DMSO (blank control) 15 min, or FCS/complete K-SFM for 30 min at 37° C. […] Cells were lysed in 100 μl RIPA buffer and cell lysates frozen in liquid nitrogen.
Equal amount of protein were separated by electrophoresis over 10% polyacrylamid gels followed by protein transfer onto nitrocellulose membrane. Blots were transferred to primary antibody solution (anti-phospho ERK1/2 in 5% BSA/TBS-T) and incubated at 4° C. over night. After appropriate washing in TBS-T blots were incubated in secondary antibody (anti-rabbit Alexa-680 in 5% milk/TBS-T) for 45 min at room temperature in dark. Blots were washed 3× in TBS-T protected from light. Blots were imaged with the IR imager in 700 nm channel in a scan at 169 μm resolution.
A general note: A western blot detects proteins with antibodies after separation by electrophoresis.

[6] abbreviates: human cultured fibroblasts, 24 h exposure.
The mark [7] stands for this setting: human cultured melanocytes, 6 h exposure.
Setting [8] is: primary human cultured keratinocytes.
Setting [9] is: cultured human primary keratinocytes.

For `COc1cccc2c1[C@]13CCN(CC4CC4)[C@H](C2)[C@]1(OC)CCC(=O)C3` [Cyprodime], the “scratch wound closure after 24 h, remaining gap” value in assay [1] is “no significant effects”.

As to `O=C1CN(/N=C/c2ccc(-c3ccc([N+](=O)[O-])cc3)o2)C(O)=N1` [Dantrolene], the “effect of blocker on calcium response to thujone” value in the assay with TAS2R14 [2] is listed as “significantly attenuate”.

Consider `O=C(O)c1ccccc1Nc1cccc(C(F)(F)F)c1` [FFA, flufenamic acid], for which the “intracellular free calcium (fluorescence of fluo4)” value at TAS2R14 [3] is given as “robust increases in intracellular free calcium”. In addition, the calcium response in the assay on TAS2R14 [2] is given as 31.0±7.0 percentage of ionomycin signal.

Consider `O=C1CC[C@@]2(O)[C@H]3Cc4ccc(O)c5c4[C@@]2(CCN3CC2CC2)[C@H]1O5` [Naltrexone], for which the “wound healing (mean healing rate, macroscopic and microscopic)” value in assay [4] is “not effective”.

Turning to `Oc1ccc2c3c1O[C@H]1c4oc5ccccc5c4C[C@@]4(O)[C@@H](C2)N(CC2CC2)CC[C@]314` [Naltriben], in assay [1], the “scratch wound closure after 24 h, remaining gap” value is “more effective than the mixed DOR1/2 antagonist Naltrindole and much more effective than the DOR1 antagonist BNTX”.

As to `Oc1ccc2c3c1O[C@H]1c4[nH]c5ccccc5c4C[C@@]4(O)[C@@H](C2)N(CC2CC2)CC[C@]314` [Naltrindole, naltrindole], the DOR protein expression entry is listed as “important upregulation” in the assay with DOR protein expression (setting [6]); “important up-regulation; also recorded: upregulates” in the assay with DOR protein expression (setting [7]); “can upregulate the protein as well; also recorded: can up-regulate the protein as well” in the assay on DOR protein expression (human cultured melanocytes, combination of antagonist Naltrindole and agonist SNC-80); “important up-regulation; also recorded: up-regulates” in the assay with DOR protein expression (setting [8]). For the same compound, the “wound healing (mean healing rate, macroscopic and microscopic)” value in assay [4] is “significantly improved wound healing at days 5 and 7”; in assay [4] (listed as Naltrindol), “significant better healing”. Further, in assay [4] (compared to placebo), the “improvement of wound healing” value is reported as 3 days. In addition, the DOR-mRNA expression entry is reported as “increases significantly” in the assay with DOR-mRNA expression (cultured human primary fibroblasts); “increases significantly” with DOR-mRNA expression (setting [9]); “increases significantly” in the assay with DOR-mRNA expression (cultured human primary melanocytes); “increases significantly” in the assay on DOR-mRNA expression (cultured human primary melanocytes, co-incubation of Naltrindole and agonist SNC-80). Moreover, the “mRNA of DOR” value with DOR-mRNA expression (human keratinocytes and melanocytes pre-incubated for 3 hours with 10 μM Naltrindole, then exposed to SNC-80) is reported as “massively up-regulated”. Further, in assay [5] (MAP kinase activation assay for selecting DOR antagonists), the “concentration that promotes phosphorylation of MAP kinase such as Erk” value is listed as “less than or equal to 10 μM”. Also, the “Erk phosphorylation (MAPK pathway ERK1/2)” value in assay [5] (primary human keratinocytes) is on record as “strong stimulating effect; also recorded: massive activation of Erk”. Moreover, in assay [1], the “wound closure/migration, gap closure after 24 h” value (“wound closure/migration” for short) is “significant faster migration and wound closure; also recorded: significant improvement of wound closure/migration”.

Take `C=CCN1C[C@H](C)N([C@H](c2ccc(C(=O)N(CC)CC)cc2)c2cccc(OC)c2)C[C@H]1C` [SNC-80]: the DOR protein expression entry with DOR protein expression (setting [6]) was “some up- and downregulation”; in the assay on DOR protein expression (setting [7]), “not”; in the assay on DOR protein expression (setting [8]) it was “important up-regulation; also recorded: up-regulates”. In addition, the “wound healing (mean healing rate, macroscopic and microscopic)” value in assay [4] was “very significant advantage of a specific DOR antagonist over”. The DOR-mRNA expression entry in the assay on DOR-mRNA expression (setting [9]) is reported as “increases significantly”. Also, the “effect on Naltrindole-stimulated Erk phosphorylation” value in assay [5] (primary human keratinocytes) is reported as “antagonized”. Further, in assay [1], the “wound closure/migration” value is reported as “does not seem to have any stimulation of migration; also recorded: does not seem to change migration”.

As for `C1CCC[C@H]2CCCN3CC[C@@H](CCCCCC[C@@H]4CCCN5CC[C@@H](CC1)O[C@@H]45)O[C@@H]23` [Xestospongin, Xestospongin C], in the assay with TAS2R14 [2], the “effect of blocker on calcium response to thujone” value is on record as “significantly attenuated; also recorded: highly significant inhibition”.

On to `COC(=O)/C=C/C(=O)N[C@@H]1CC[C@@]2(O)[C@H]3Cc4ccc(O)c5c4[C@@]2(CCN3CC2CC2)[C@H]1O5` [irreversible blocker of MOR (>KOR>>DOR), beta-Funaltrexamine], for which, in assay [1], the “scratch wound closure after 24 h, remaining gap” value is given as “no significant effects”.

For `Cc1ccc(C(=O)Nc2ccc(S(=O)(=O)O)c3cc(S(=O)(=O)O)cc(S(=O)(=O)O)c23)cc1NC(=O)c1cccc(NC(=O)Nc2cccc(C(=O)Nc3cc(C(=O)Nc4ccc(S(=O)(=O)O)c5cc(S(=O)(=O)O)cc(S(=O)(=O)O)c45)ccc3C)c2)c1` [suramin], the “effect of blocker on calcium responses to thujone and FFA” value is “significantly attenuated” in the assay on TAS2R14 [2] and “attenuates significantly” with TAS2R14 [2] (listed as Suramin).

Consider `CC(C)[C@]12CC(=O)[C@H](C)[C@H]1C2` [thujone, α-thujone], for which the “intracellular free calcium (fluorescence of fluo4)” value at TAS2R14 [3] was “robust increases in intracellular free calcium”. In addition, the calcium response at TAS2R14 [3] (control without suramin, 1 mM thujone, FFA in N/TERT cells, n=4) is given as 84.2±5.5 percentage of ionomycin signal; in the assay on TAS2R14 [2] it was 34.4±8.2 percentage of ionomycin signal.

For Dalargin, the “wound healing (mean healing rate, macroscopic and microscopic)” value in assay [4] is reported as “very significant advantage of a specific DOR antagonist over”.

In the case of Ryanodine, the “effect of blocker on calcium response to thujone” value in the assay on TAS2R14 [2] is listed as “significantly attenuate”.

For the compound “TGFβ1: known stimulator of wound closure/migration”, the “wound closure/migration” value is “significant improvement of wound closure/migration” in assay [1]; “significant faster migration and wound closure” in assay [1] (listed as TGF-beta1).
